From patent publication US20230255205A1, “HERBICIDAL HETEROCYCLIC DERIVATIVES” (MoA Technology Limited, priority 2020, published 2023)

Tests used:
Type in all cases: in vivo
[1] = system: Veronica persica (VERPE); assay: Comparative tests against non-claimed structural analogues, % visual injury; conditions: rate 125 g/ha
Experimental: (§1) Selected compounds of the invention were also assessed in comparative tests (Table 5) against structural analogues not according to the invention (e.g. a compound containing an imidazole and one containing an oxazole, neither of which fall within the scope of the claimed invention). In each test, compounds were applied at a rate of 125 g/ha. Test 1 compared the efficacy of a compound of the invention (93) with a non-claimed structure which contains an unsubstituted triazole (105). […] Test 2 compared the efficacy of compound 93 with compound 104, which contains an imidazole and is therefore not according to the invention. […] Test 3 compared the efficacy of compound 43, a further compound according to the invention, with compound 103, which contains an oxazole not according to the invention.

[2] = system: Amaranthus retroflexus (AMARE); assay: as above; conditions: rate 125 g/ha
Experimental: as §1

[3] = system: Lolium multiflorum (LOLMU); assay: as above; conditions: rate 125 g/ha
Experimental: as §1

[4] = system: Echinochloa crus-galli (ECHCG); assay: as above; conditions: rate 125 g/ha
Experimental: as §1

[5] = system: Veronica persica (VERPE); assay: Post-emergence herbicidal test, % visual injury; conditions: 336 h, 14±1 days post application; for pest or weed control at 500 g/ha: rate 500 g/ha; for pest or weed control at 1000 g/ha: rate 1000 g/ha
Experimental: (§2) Seeds of a variety of test species are grown in a sandy loam soil mixture, Lolium multiflorum (LOLMU), Amaranthus retroflexus (AMARE), Echinochloa crus-galli (ECHCG), Veronica persica (VERPE).
(§3) After sowing, at growth stage BBCH 12-14 (post-emergence), the plants are sprayed with an aqueous spray solution derived from the formulation of the technical active ingredient in acetone/water (50:50) solution containing 0.5% Tween 20 (polyoxyethlyene sorbitan monolaureate, CAS RN 9005-64-5). The test compounds are applied at the required concentration of active ingredient in g/ha. The test plants are then grown in a glasshouse under controlled environmental conditions and watered regularly as required. After 14±1 days post application (for post-emergence test), the test is evaluated by assessing the percentage damage caused to the plants in comparison with the untreated plots. The biological activities for post-emergence testing are shown below (Table 3) as a % visual injury.

[6] = system: Amaranthus retroflexus (AMARE); assay: Post-emergence herbicidal test, % visual injury; conditions: 336 h, 14±1 days post application; for pest or weed control at 500 g/ha: rate 500 g/ha; for pest or weed control at 1000 g/ha: rate 1000 g/ha
Experimental: as §2, §3

[7] = system: Lolium multiflorum (LOLMU); assay: Post-emergence herbicidal test, % visual injury; conditions: 336 h, 14±1 days post application; for pest or weed control at 500 g/ha: rate 500 g/ha; for pest or weed control at 1000 g/ha: rate 1000 g/ha
Experimental: as §2, §3

[8] = system: Echinochloa crus-galli (ECHCG); assay: Post-emergence herbicidal test, % visual injury; conditions: 336 h, 14±1 days post application; for pest or weed control at 500 g/ha: rate 500 g/ha; for pest or weed control at 1000 g/ha: rate 1000 g/ha
Experimental: as §2, §3

[9] = system: Veronica persica (VERPE); assay: Pre-emergence herbicidal test, % visual injury; conditions: 336 h, rate 1000 g/ha, 14±1 days post-emergence in untreated plots
Experimental: (§4) Pre-emergence testing was also performed using the same test species grown in a sandy loam soil mixture, Lolium multiflorum (LOLMU), Amaranthus retroflexus (AMARE), Echinochloa crus-galli (ECHCG), Veronica persica (VERPE).
(§5) After sowing, at growth stage BBCH 00-07 (pre-emergence), the plants are sprayed with an aqueous spray solution derived from the formulation of the technical active ingredient in acetone/water (50:50) solution containing 0.5% Tween 20 (polyoxyethlyene sorbitan monolaureate, GAS RN 9005-64-5). The test compounds are applied at the required […] concentration of active ingredient in g/ha. The test plants are then grown in a glasshouse under controlled environmental conditions and watered regularly as required. After 14±1 days post-emergence in untreated plots (for the pre-emergence test), the test is evaluated by assessing the percentage damage caused to the plants in comparison with the untreated plots. The biological activities for pre-emergence testing are shown below (Table 4) in the following table as a % visual injury.

[10] = system: Lolium multiflorum (LOLMU); assay: Pre-emergence herbicidal test, % visual injury; conditions: 336 h, rate 1000 g/ha, 14±1 days post-emergence in untreated plots
Experimental: as §4, §5

[11] = system: Echinochloa crus-galli (ECHCG); assay: Pre-emergence herbicidal test, % visual injury; conditions: 336 h, rate 1000 g/ha, 14±1 days post-emergence in untreated plots
Experimental: as §4, §5

[12] = system: Amaranthus retroflexus (AMARE); assay: Pre-emergence herbicidal test, % visual injury; conditions: rate 1000 g/ha, 14±1 days post-emergence in untreated plots
Experimental: as §4, §5

| SMILES | pest or weed control at 500 g/ha [5] | pest or weed control at 500 g/ha [6] | pest or weed control at 500 g/ha [7] | pest or weed control at 500 g/ha [8] | pest or weed control at 1000 g/ha [9] | pest or weed control at 1000 g/ha [10] | pest or weed control at 1000 g/ha [11] | also measured |
| --- | --- | --- | --- | --- | --- | --- | --- | --- |
| O=C(COc1ccc(F)cc1Cl)Nc1nnc(C(F)(F)F)[nH]1 [Compound 93] | 90% | 100% | 70% | 80% | – | – | – | VERPE % visual Injury [1]: 80%; AMARE % visual Injury [2]: 60%; LOLMU % visual Injury [3]: 20%; ECHCG % visual Injury [4]: 30% |
| O=C(COc1ccc(F)cc1Cl)Nc1ncc(C(F)(F)F)o1 [Compound 103] | – | – | – | – | – | – | – | VERPE % visual Injury [1]: 50%; AMARE % visual Injury [2]: 50%; LOLMU % visual Injury [3]: 20%; ECHCG % visual Injury [4]: 30% |
| CC(Oc1ccc(F)cc1Cl)C(=O)Nc1nnc(C(F)(F)F)[nH]1 (centres unmarked) [Compound 32] | – | – | – | – | 5% | 0% | 0% | – |
| O=C(COc1ccc(F)cc1Cl)Nc1nnc[nH]1 [Compound 105] | – | – | – | – | – | – | – | VERPE % visual Injury [1]: 40%; AMARE % visual Injury [2]: 50%; LOLMU % visual Injury [3]: 0%; ECHCG % visual Injury [4]: 20% |
| O=C(COc1ccc(F)cc1Cl)Nc1nnc(C(F)(F)F)o1 [Compound 43] | – | – | – | – | – | – | – | VERPE % visual Injury [1]: 70%; AMARE % visual Injury [2]: 70%; LOLMU % visual Injury [3]: 50%; ECHCG % visual Injury [4]: 30% |
| O=C(CCCOc1ccc(Cl)cc1Cl)Nc1nnc(C(F)(F)F)[nH]1 [Compound 28, 4-(2,4-dichlorophenoxy)-N-[5-(trifluoromethyl)-4H-1,2,4-triazol-3-yl]butanamide] | 60% | 70% | 0% | 10% | 0% | 40% | 0% | – |
| Cn1nnnc1NC(=O)COc1ccc(F)cc1Cl [Compound 25] | 70% | 40% | 70% | 0% | 10% | 0% | 10% | – |
| Cc1cc(Cl)ccc1OCCCC(=O)Nc1nnc(C(F)(F)F)[nH]1 [Compound 29] | 80% | 60% | 60% | 0% | 0% | 20% | 0% | – |
| Cc1nnc(NC(=O)COc2ccc(F)cc2Cl)o1 [Compound 26] | 95% | 90% | 50% | 90% | 0% | 50% | 30% | – |
| Cc1cc(Cl)ccc1OCC(=O)Nc1nnc(C(F)(F)F)[nH]1 [Compound 35] | – | – | – | – | 0% | 0% | 80% | AMARE % visual Injury [12]: 20%; pest or weed control at 1000 g/ha [5]: 60%; pest or weed control at 1000 g/ha [6]: 80%; pest or weed control at 1000 g/ha [7]: 20%; pest or weed control at 1000 g/ha [8]: 30% |
| O=C(CCCOc1ccc(F)cc1Cl)Nc1nnc(C(F)(F)F)[nH]1 [Compound 30, 4-(2-chloro-4-fluorophenoxy)-N-[5-(trifluoromethyl)-4H-1,2,4-triazol-3-yl]butanamide] | 60% | 80% | 70% | 30% | 0% | 60% | 0% | – |
| O=C(COc1ccc(Cl)cc1Cl)Nc1nnc(C(F)(F)F)[nH]1 [Compound 36] | – | – | – | – | 0% | 0% | 40% | AMARE % visual Injury [12]: 40%; pest or weed control at 1000 g/ha [5]: 98%; pest or weed control at 1000 g/ha [6]: 99%; pest or weed control at 1000 g/ha [7]: 40%; pest or weed control at 1000 g/ha [8]: 30% |
| Cc1cccc(Cl)c1OCC(=O)Nc1nnc(C(F)(F)F)[nH]1 [Compound 18] | 70% | 0% | 0% | 0% | – | – | – | – |
| O=C(COc1cc(Cl)c(Cl)cc1Cl)Nc1nnc(C(F)(F)F)[nH]1 [Compound 39] | 50% | 80% | 0% | 0% | – | – | – | – |
| Cc1cccc(C)c1OCC(=O)Nc1nnc(C(F)(F)F)[nH]1 [Compound 100] | 20% | 0% | 0% | 0% | – | – | – | – |
| CCC(Oc1ccccc1Cl)C(=O)Nc1nnc(C(F)(F)F)[nH]1 (centres unmarked) [Compound 12] | 60% | 70% | 0% | 10% | – | – | – | – |
| Cn1nc(C(F)(F)F)nc1NC(=O)COc1ccc(F)cc1Cl [Compound 41, 2-(2-chloro-4-fluorophenoxy)-N-[1-methyl-3-(trifluoromethyl)-1H-1,2,4-triazol-5-yl]acetamide] | 70% | 95% | 40% | 60% | – | – | – | – |
| O=C(COc1ccc(F)cc1F)Nc1nnc(C(F)(F)F)[nH]1 [Compound 10, 2-(2,4-difluorophenoxy)-N-[5-(trifluoromethyl)-4H-1,2,4-triazol-3-yl]acetamide] | 80% | 40% | 0% | 30% | – | – | – | – |
| O=C(COc1ccc(F)cc1Cl)Nc1ncc(C(F)(F)F)[nH]1 [Compound 104] | – | – | – | – | – | – | – | VERPE % visual Injury [1]: 70%; AMARE % visual Injury [2]: 40%; LOLMU % visual Injury [3]: 10%; ECHCG % visual Injury [4]: 30% |
| CCn1cnnc1NC(=O)COc1cccc(C(F)(F)F)c1 [Compound 102] | 7% | 50% | 0% | 70% | – | – | – | – |
| O=C(COc1ccc(Br)cc1F)Nc1nnc(C(F)(F)F)[nH]1 [Compound 17] | 70% | 60% | 0% | 0% | – | – | – | – |
